According to US5262411A, “Isocephem derivatives, and antimicrobial composition containing the derivatives” (Otsuka Pharmaceutical Co., Ltd., priority 1989, dated 1993):
Values after ≈ are worked out from the molar mass of the structure shown. Like-named read-outs stand apart in the source and are kept apart here.

Experiments:
Assay type in all cases: cell-based
S. aureaus FDA-209P = assay: MIC against S. aureaus FDA-209P by the plate diluted method; conditions: Staphylococcus aureus, FDA209P; S. aureaus FDA-209P; 1×10^6 cells/ml; read-out: MIC
Method: (§1) In order to investigate the in vitro activity of the test compounds against various bacteria, the minimal inhibitory concentration (MIC) values were determined by the plate diluted method (See CHEMOTHERAPY, 22, 1126-1128, 1974.)
(§2) Each strain was adjusted to 1×10^6 cells/ml (O.D. 600 mμ, 0.07 to 0.16).

E. coli NIHJ JC-2 = assay: MIC against E. coli NIHJ JC-2 by the plate diluted method; conditions: Escherichia coli, NIHJJC2
Method: as §1, §2

K. pneumoniae NCTC-9632 = assay: MIC against K. pneumoniae NCTC-9632 by the plate diluted method; conditions: Klebsiella pneumoniae, NCTC9632; K. pneumoniae NCTC-9632; 1×10^6 cells/ml; read-out: MIC
Method: as §1, §2

M. moganii IIDkono = assay: MIC against M. moganii IIDkono by the plate diluted method
Method: as §1, §2

S. marcescens IFO 12648 = assay: MIC against S. marcescens IFO 12648 by the plate diluted method; conditions: Serratia marcescens, IFO12648; S. marcescens IFO 12648; 1×10^6 cells/ml; read-out: MIC
Method: as §1, §2

A. calcoaceticus Ac-54 = assay: MIC against A. calcoaceticus Ac-54 by the plate diluted method; conditions: Acinetobacter calcoaceticus, AC54; A. calcoaceticus Ac-54; 1×10^6 cells/ml; read-out: MIC
Method: as §1, §2

P. aeruginosa ATCC-10145 = assay: MIC against P. aeruginosa ATCC-10145 by the plate diluted method; conditions: Pseudomonas aeruginosa, ATCC10145; P. aeruginosa ATCC-10145; 1×10^6 cells/ml; read-out: MIC
Method: as §1, §2

P. aeruginosa E-2 = assay: MIC against P. aeruginosa E-2 by the plate diluted method; conditions: Pseudomonas aeruginosa, E2; P. aeruginosa E-2; 1×10^6 cells/ml; read-out: MIC
Method: as §1, §2

[1] = E. coli NIHJ JC-2, 1×10^6 cells/ml, read-out: MIC

SMILES | MIC (S. aureaus FDA-209P) | MIC (E. coli NIHJ JC-2; [1]) | MIC (K. pneumoniae NCTC-9632) | MIC (M. moganii IIDkono) | MIC (S. marcescens IFO 12648) | MIC (A. calcoaceticus Ac-54) | MIC (P. aeruginosa ATCC-10145) | MIC (P. aeruginosa E-2) | MIC (M. moganii IIDkono; M. moganii IIDkono, 1×10^6 cells/ml, read-out: MIC) | MIC (E. coli NIHJ JC-2)
Nc1nc(/C(=N/OCc2cc(=O)c(O)cn2O)C(=O)N[C@@H]2C(=O)N3C(C(=O)O)=C(CSc4snc(O)c4C(=O)O)SC[C@H]23)ns1 [No. 22, (6S,7S)-7-[(Z)-2-(5-amino-1,2,4-thiadiazol-3-yl)-2-(1,5-dihydroxy-4-pyridone-2-ylmethoxyimino)acetamide]-3-(4-carboxy-3-hydroxyisothiazol-5-ylthiomethyl) isocephem-4-carboxylic acid] | 100 µg/mL (≈ 143 µM) | 0.05 µg/mL (≈ 0.0716 µM) | 0.012 µg/mL (≈ 0.0172 µM) | 0.05 µg/mL (≈ 0.0716 µM) | 0.012 µg/mL (≈ 0.0172 µM) | 0.1 µg/mL (≈ 0.143 µM) | 0.1 µg/mL (≈ 0.143 µM) | 0.2 µg/mL (≈ 0.286 µM) |  | 
Nc1nc(/C(=N/OCc2cc(=O)c(O)cn2O)C(=O)N[C@@H]2C(=O)N3C(C(=O)O)=C(CSc4snc(O)c4C(=O)O)CS[C@H]23)ns1 [No. 23, (6R,7R)-7-[(Z)-2-(5-amino-1,2,4-thiadiazol-3-yl)-2-(1,5-dihydroxy-4-pyridone-2-ylmethoxyimino)acetamide]-3-(4-carboxy-3-hydroxyiso-thiazol-5-ylthiomethyl)-3-cephem-4-carboxylic acid] | 100 µg/mL (≈ 143 µM) | 0.1 µg/mL (≈ 0.143 µM) | 0.024 µg/mL (≈ 0.0343 µM) | 0.05 µg/mL (≈ 0.0716 µM) | 0.024 µg/mL (≈ 0.0343 µM) | 0.1 µg/mL (≈ 0.143 µM) | 0.1 µg/mL (≈ 0.143 µM) | 0.1 µg/mL (≈ 0.143 µM) |  | 
Nc1nc(/C(=N/OCc2cc(=O)c(O)cn2O)C(=O)N[C@@H]2C(=O)N3C(C(=O)[O-])=C(CSc4cc[n+](CC(=O)O)cc4)SC[C@H]23)ns1 [No. 24, (6S,7S)-7-[(Z)-2-(5-amino-1,2,4-thiadiazol-3-yl)-2-(1,5-dihydroxy-4-pyridone-2-ylmethoxyimino)acetamide]-3-(1-carboxymethylpyridinium-4-ylthiomethyl)isocephem-4-carboxylate] | 12.5 µg/mL (≈ 18.1 µM) | 0.1 µg/mL (≈ 0.145 µM) | 0.024 µg/mL (≈ 0.0347 µM) |  | 0.024 µg/mL (≈ 0.0347 µM) | 0.39 µg/mL (≈ 0.565 µM) | 0.1 µg/mL (≈ 0.145 µM) | 0.2 µg/mL (≈ 0.29 µM) | 0.024 µg/mL (≈ 0.0347 µM) | 
Nc1nc(/C(=N/OCc2cc(=O)c(O)cn2O)C(=O)N[C@@H]2C(=O)N3C(C(=O)[O-])=C(CSc4cc[n+](CC(=O)O)cc4)CS[C@H]23)ns1 [No. 25, (6R,7R)-7-[(Z)-2-(5-amino-1,2,4-thiadiazol-3-yl)-2-(1,5-dihydroxy-4-pyridone-2-ylmethoxyimino)acetamide]-3-(1-carboxymethylpyridinium-4-ylthiomethyl)-3-cephem-4-carboxylate] | 6.25 µg/mL (≈ 9.05 µM) |  | 0.024 µg/mL (≈ 0.0347 µM) | 0.05 µg/mL (≈ 0.0724 µM) | 0.024 µg/mL (≈ 0.0347 µM) | 0.39 µg/mL (≈ 0.565 µM) | 0.1 µg/mL (≈ 0.145 µM) | 0.2 µg/mL (≈ 0.29 µM) |  | 0.2 µg/mL (≈ 0.29 µM)
